Test results as given in the supplement of paper PMC10307832.

Tests used:
Assay in all cases: relative viability (nuclei count vs DMSO), 5 days (fraction); higher = more cells survive
MK-2206 = compound: NC1(c2ccc(-c3nc4ccn5c(=O)[nH]nc5c4cc3-c3ccccc3)cc2)CCC1 [MK-2206]
Procedure, shortened: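 After an overnight hold at 37 °C, lung cancer cell lines in 1536-well plates were pinned with five library-drug doses (not always all listed), each √10 from the next, on vehicle-anchored plates. The cells stayed 5 days without fresh medium, then a one-step fix, permeabilisation and Hoechst stain preceded 4× imaging and MetaXpress nuclear counts. A plate passed only with control CV under 25% and at least one doubling. Viability is the median, over plates, of treated-well nuclei relative to vehicle-well nuclei.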

Pictilisib + Phenformin = compound: CS(=O)(=O)N1CCN(Cc2cc3nc(-c4cccc5[nH]ncc45)nc(N4CCOCC4)c3s2)CC1 [Pictilisib] + N=C(N)NC(=N)NCCc1ccccc1 [Phenformin] (partner 250 µM)
Procedure, shortened: (§1)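 Medians of duplicate plates are given as relative viability. That measure is the nuclei count in treated wells divided by the count in vehicle wells. Counts were taken on 4× images of lung cancer cell lines in 1536-well plates, 5 days after pin-tool dosing the day after seeding with one drug alone or a fixed anchor-drug dose plus five library-drug doses (not always all listed) in √10 steps.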

Pictilisib + AZD7762 = compound: CS(=O)(=O)N1CCN(Cc2cc3nc(-c4cccc5[nH]ncc45)nc(N4CCOCC4)c3s2)CC1 [Pictilisib] + NC(=O)Nc1cc(-c2cccc(F)c2)sc1C(=O)N[C@H]1CCCNC1 [AZD7762] (partner 0.2 µM)
Procedure, shortened: as §1

MK-2206 + Lapatinib = compound: NC1(c2ccc(-c3nc4ccn5c(=O)[nH]nc5c4cc3-c3ccccc3)cc2)CCC1 [MK-2206] + CS(=O)(=O)CCNCc1ccc(-c2ccc3ncnc(Nc4ccc(OCc5cccc(F)c5)c(Cl)c4)c3c2)o1 [Lapatinib] (partner 2 µM)
Procedure, shortened: as §1

MK-2206 + Tozasertib = compound: NC1(c2ccc(-c3nc4ccn5c(=O)[nH]nc5c4cc3-c3ccccc3)cc2)CCC1 [MK-2206] + Cc1cc(Nc2cc(N3CCN(C)CC3)nc(Sc3ccc(NC(=O)C4CC4)cc3)n2)n[nH]1 [Tozasertib] (partner 0.1 µM)
Procedure, shortened: as §1

For RERF-LC-KJ, the relative viability (MK-2206; 0.01 µM) was 0.943, the relative viability (MK-2206; 0.03162 µM) was 0.997 and the relative viability (MK-2206; 0.3162 µM) was 0.854. For the same cell line, the relative viability (MK-2206; 1 µM) was 0.919, the relative viability (Pictilisib + Phenformin; first compound 0.02 µM) was 0.409 and the relative viability (Pictilisib + Phenformin; first compound 0.06325 µM) was 0.35. The relative viability (Pictilisib + Phenformin; first compound 0.6325 µM) was 0.343, the relative viability (Pictilisib + Phenformin; first compound 2 µM) was 0.307 and the relative viability (Pictilisib + AZD7762; first compound 0.02 µM) was 0.999. The relative viability (Pictilisib + AZD7762; first compound 0.06325 µM) was 0.916, the relative viability (Pictilisib + AZD7762; first compound 0.6325 µM) was 0.855 and the relative viability (Pictilisib + AZD7762; first compound 2 µM) was 0.55. The relative viability (MK-2206 + Lapatinib; first compound 0.01 µM) was 0.871, the relative viability (MK-2206 + Lapatinib; first compound 0.03162 µM) was 0.902 and the relative viability (MK-2206 + Lapatinib; first compound 0.3162 µM) was 0.723. It also gave a relative viability (MK-2206 + Lapatinib; first compound 1 µM) of 0.787, a relative viability (MK-2206 + Tozasertib; first compound 0.01 µM) of 0.538 and a relative viability (MK-2206 + Tozasertib; first compound 0.03162 µM) of 0.529. The relative viability (MK-2206 + Tozasertib; first compound 0.3162 µM) was 0.461 and the relative viability (MK-2206 + Tozasertib; first compound 1 µM) was 0.364.
